This is an account of results in US11149035B2, “Chemical compounds as H—PGDS inhibitors” (GlaxoSmithKline Intellectual Property Development Limited, priority 2017, dated 2021).

The structures appear in SMILES notation.

The assay has as its system prostaglandin D2 generation following 48/80-induced mast cell degranulation. Put plainly: In vivo mast cell activation (compound 48/80-induced degranulation, PGD2 in peritoneal lavage by LC/MS/MS). The arrangement: species or system mouse. The following applies: normal C57Bl6/N mice; oral 0.1-10 mg/kg ~1 hour prior to 48/80 i.p.; peritoneal lavage 7 minutes afterwards; FIG. 2. The method, then: Mice were randomized by body weight into 8 groups (n=8): Vehicle (0.5% HPML with 0.1% Tween80)+phosphate buffered saline (PBS), vehicle+compound 48/80 (0.75 mg/ml) and compound 48/80+Example 21 at various doses ranging from 0.1 mg/kg to 10 mg/kg.
C57BL mice were dosed orally with vehicle, or Example 21 at 0.1, 0.3, 1, 3, & 10 mg/kg. One hour later, blood samples were withdrawn via tail snip for measurement of drug levels, and mice were then terminally anesthetized with 2% isoflurane and given an intraperitoneal injection of 0.2 mL PBS or compound 48/80 solution (0.75 mg/mL, Sigma), followed by gentle massage of the abdomen. Mice were kept under anesthesia for 7 minutes prior to euthanasia. […]
Samples were thawed at room temperature and vortex-mixed. […] The plate was vortex-mixed for 30 seconds at 1000 rpm and analyzed by LC/MS/MS.
The analytical system consisted of a CTC HTS PAL autoinjector (Leap, Carrboro, N.C.), an Agilent 1290 Infinity binary pump and thermostated column compartment (Agilent Technologies, Santa Clara, Calif.) and an AB Sciex QTRAP 5500 mass spectrometer (AB Sciex, Framingham, Mass.). […] The analytes were detected by multiple reaction monitoring (MRM) in negative mode using Turbolon spray with the transitions of m/z 351/271 amu for PGD2/PGE2 and m/z 360/280 amu for PGD2-d9/PGE2-d9. […]

With `CC(C)(O)[C@H]1CC[C@H](NC(=O)c2cnc3nc(C4CC4)ccc3c2)CC1` [Example 21, 7-Cyclopropyl-N-((trans)-4-(2-hydroxypropan-2-yl)cyclohexyl)-1,8-naphthyridine-3-carboxamide], the “48/80-induced PGD2 generation in lavage fluid” value is “prevents 48/80-induced PGD2 generation”.
